{"source": "the OPERA property sets (Mansouri et al. 2018)"}
{"details": "not given", "units": {"solubility": "mM"}}
{"smiles": "O=C1OC(c2ccc(O)cc2)(c2ccc(O)cc2)c2ccccc21", "solubility": 1.26}
{"smiles": "CC(C)(C)NCC(O)c1ccc(O)c(CO)c1", "note": "(stereo not drawn)", "solubility": 59.3}
{"smiles": "NC(=O)NC1NC(=O)NC1=O", "note": "(stereo not drawn)", "solubility": 33.3}
{"details": "20 °C", "units": {"solubility": "mM"}}
{"smiles": "CCCCC(C)=O", "solubility": 175}
{"smiles": "CCNc1nc(NC(C)(C)C)nc(SC)n1", "solubility": 0.104}
{"smiles": "S=C=S", "solubility": 15.5}
{"smiles": "c1ccc(Nc2ccccc2)cc1", "solubility": 0.313}
{"smiles": "C#C", "solubility": 46.1}
{"smiles": "CCOP(=S)(OCC)SCC(=O)NC(C)C", "solubility": 8.76}
{"smiles": "CCOCCOC(C)=O", "solubility": 1870}
{"smiles": "O=[N+]([O-])c1ccc(Cl)c(Cl)c1", "solubility": 0.63}
{"smiles": "O=[N+]([O-])c1cccc(Cl)c1", "solubility": 1.73}
{"smiles": "CCCBr", "solubility": 19.9}
{"smiles": "C#CC(C)OC(=O)Nc1cccc(Cl)c1", "note": "(stereo not drawn)", "solubility": 2.41}
{"smiles": "BrCCCBr", "solubility": 8.42}
{"smiles": "CNC(=O)Oc1cc(C(C)(C)C)cc(C(C)(C)C)c1", "solubility": 0.057}
{"smiles": "CC(C)Br", "solubility": 24.6}
{"smiles": "CCCCCCC(C)=O", "solubility": 7.02}
{"smiles": "Cc1cc(O)cc(C)c1Cl", "solubility": 1.6}
{"smiles": "CC(=O)OC(C)=O", "solubility": 1180}
{"smiles": "O=[N+]([O-])c1ccc(Cl)cc1", "solubility": 1.43}
{"smiles": "CC1(C)C(=O)N(Cl)C(=O)N1Cl", "solubility": 2.54}
{"smiles": "O=[N+]([O-])c1cccc(Cl)c1Cl", "solubility": 0.325}
{"smiles": "Nc1nc(N)nc(N)n1", "solubility": 25.6}
{"details": "22 °C", "units": {"solubility": "mM"}}
{"smiles": "O=[N+]([O-])C(Br)(CO)CO", "solubility": 1250}
{"smiles": "N[C@@H](Cc1ccccc1)C(=O)O", "note": "(racemic)", "solubility": 134}
{"details": "23 °C", "units": {"solubility": "mM"}}
{"smiles": "CC(Oc1cc(Cl)c(Cl)cc1Cl)C(=O)O", "note": "(stereo not drawn)", "solubility": 0.341}
{"details": "24 °C", "units": {"solubility": "mM"}}
{"smiles": "CCOP(=S)(OCC)Oc1nc(Cl)c(Cl)cc1Cl", "solubility": 0.00319}
{"smiles": "Cc1ccc2cc3c(ccc4ccccc43)cc2c1", "solubility": 0.000153}
{"smiles": "CC[C@H](C)[C@H](N)C(=O)O", "note": "(racemic)", "solubility": 262}
{"smiles": "COP(=S)(OC)SCC(=O)N(C)C=O", "solubility": 10.1}
{"smiles": "CN1CCN(CCCN2c3ccccc3Sc3ccc(Cl)cc32)CC1", "solubility": 0.04}
{"details": "25 °C", "units": {"solubility": "mM"}}
{"smiles": "CC(C)(C)C", "solubility": 0.46}
{"smiles": "CCCCCCCCCCCCCCCCO", "solubility": "9.69e-05"}
{"smiles": "O=C(O)c1cccc([N+](=O)[O-])c1", "solubility": 21.4}
{"smiles": "Cc1cccc(O)c1", "solubility": 210}
{"smiles": "CCCCCCCCC=O", "solubility": 0.675}
{"smiles": "CCNc1nc(NC(C)C)nc(SC)n1", "solubility": 0.919}
{"smiles": "ClC1(Cl)C2(Cl)C3(Cl)C4(Cl)C(Cl)(Cl)C5(Cl)C3(Cl)C1(Cl)C5(Cl)C24Cl", "note": "(stereo not drawn)", "solubility": 0.000156}
{"smiles": "CCC1(CCC(C)C)C(=O)NC(=O)NC1=O", "solubility": 2.67}
{"smiles": "CCC(C)CC", "solubility": 0.208}
{"smiles": "ClC(Cl)=C(c1ccc(Cl)cc1)c1ccc(Cl)cc1", "solubility": 0.000126}
{"smiles": "CCCCCC(=O)O", "solubility": 88.7}
{"smiles": "Cc1ccc(O)cc1", "solubility": 199}
{"smiles": "c1ccc(-c2ccccc2)cc1", "solubility": 0.045}
{"smiles": "CC(C)C[C@H](N)C(=O)O", "solubility": 141}
{"smiles": "Nc1ccccc1", "solubility": 387}
{"smiles": "O=Cc1ccccc1", "solubility": 61.9}
{"smiles": "CCCCCCCO", "solubility": 14.4}
{"smiles": "C[C@]12CCC(=O)C=C1CC[C@@H]1[C@@H]2CC[C@@]2(C)[C@H]1CC[C@]2(C)O", "solubility": 0.112}
{"smiles": "O=C(O)c1ccccc1C(=O)O", "solubility": 42.1}
{"smiles": "OC(O)C(Cl)(Cl)Cl", "solubility": 4790}
{"smiles": "C1=CCCCC1", "solubility": 2.59}
{"smiles": "CC[N+](=O)[O-]", "solubility": 626}
{"smiles": "O=Cc1ccco1", "solubility": 801}
{"smiles": "Nc1ccc2ccccc2c1", "solubility": 1.32}
{"smiles": "CCNC(=O)CSP(=S)(OC)OC", "solubility": 34.9}
{"smiles": "N[C@@H](Cc1c[nH]c2ccccc12)C(=O)O", "solubility": 65.6}
{"smiles": "CCOC(=O)c1ccc(O)cc1", "solubility": 4.91}
{"smiles": "O=C(Nc1cccc(Cl)c1)OCC#CCCl", "solubility": 0.0426}
{"smiles": "CCCCc1ccccc1", "solubility": 0.0879}
{"smiles": "Clc1ccc(Cl)cc1", "solubility": 0.553}
{"smiles": "Cn1cnc2c1c(=O)[nH]c(=O)n2C", "solubility": 1.83}
{"smiles": "COc1cc(Cl)c(OC)cc1Cl", "solubility": 0.0386}
{"smiles": "Oc1cccc(O)c1O", "solubility": 4020}
{"smiles": "CCN(CC)c1c([N+](=O)[O-])cc(C(F)(F)F)c(N)c1[N+](=O)[O-]", "solubility": 0.00341}
{"smiles": "C[C@]12CC[C@H]3[C@@H](CCC4=CC(=O)CC[C@@H]43)[C@@H]1CC[C@@H]2O", "solubility": 11.3}
{"smiles": "Cn1c(=O)c2[nH]cnc2n(C)c1=O", "solubility": 40.9}
{"smiles": "O=C(O)c1cccnc1C(=O)O", "solubility": 65.8}
{"smiles": "CCCCC(=O)O", "solubility": 384}
{"smiles": "Clc1ccc(C(c2ccc(Cl)cc2)C(Cl)(Cl)Cl)cc1", "solubility": "1.55e-05"}
{"smiles": "Oc1ncnc2[nH]ncc12", "solubility": 4.18}
{"smiles": "CC12CCC(CC1=O)C2(C)C", "note": "(stereo not drawn)", "solubility": 2.63}
{"smiles": "CCCC(C)(COC(N)=O)COC(N)=O", "solubility": 21.5}
{"smiles": "CC(C)OC(=O)Nc1ccccc1", "solubility": 0.999}
{"details": "30 °C", "units": {"solubility": "mM"}}
{"smiles": "Nc1ccc(C(=O)O)cc1", "solubility": 44.6}
{"smiles": "CCOC(=O)c1ccc(N)cc1", "solubility": 7.93}
{"smiles": "CCC1(c2ccccc2)CCC(=O)NC1=O", "note": "(stereo not drawn)", "solubility": 4.6}
